# Laboratory results as given in paper PMC12823391 (Nature, 2025).
# Tests used:
# [1] = biological target: endogenous NLRX1 (HeLa cell lysate) (Homo sapiens, UniProt Q86UT6); assay: cellular thermal shift assay on lysate, immunoblot; format: biochemical; settings: 500 µM AcCoA, 44.6-65 °C, 3 min
# [2] = biological target: T1, MBP–NLRX1 (87–975 amino acids) (Homo sapiens, UniProt Q86UT6); assay: competition of AcCoA with biotin-AcCoA pull-down, immunoblot; format: binding; settings: unlabelled AcCoA as competitor
# T1 sequence (Q86UT6 87-975): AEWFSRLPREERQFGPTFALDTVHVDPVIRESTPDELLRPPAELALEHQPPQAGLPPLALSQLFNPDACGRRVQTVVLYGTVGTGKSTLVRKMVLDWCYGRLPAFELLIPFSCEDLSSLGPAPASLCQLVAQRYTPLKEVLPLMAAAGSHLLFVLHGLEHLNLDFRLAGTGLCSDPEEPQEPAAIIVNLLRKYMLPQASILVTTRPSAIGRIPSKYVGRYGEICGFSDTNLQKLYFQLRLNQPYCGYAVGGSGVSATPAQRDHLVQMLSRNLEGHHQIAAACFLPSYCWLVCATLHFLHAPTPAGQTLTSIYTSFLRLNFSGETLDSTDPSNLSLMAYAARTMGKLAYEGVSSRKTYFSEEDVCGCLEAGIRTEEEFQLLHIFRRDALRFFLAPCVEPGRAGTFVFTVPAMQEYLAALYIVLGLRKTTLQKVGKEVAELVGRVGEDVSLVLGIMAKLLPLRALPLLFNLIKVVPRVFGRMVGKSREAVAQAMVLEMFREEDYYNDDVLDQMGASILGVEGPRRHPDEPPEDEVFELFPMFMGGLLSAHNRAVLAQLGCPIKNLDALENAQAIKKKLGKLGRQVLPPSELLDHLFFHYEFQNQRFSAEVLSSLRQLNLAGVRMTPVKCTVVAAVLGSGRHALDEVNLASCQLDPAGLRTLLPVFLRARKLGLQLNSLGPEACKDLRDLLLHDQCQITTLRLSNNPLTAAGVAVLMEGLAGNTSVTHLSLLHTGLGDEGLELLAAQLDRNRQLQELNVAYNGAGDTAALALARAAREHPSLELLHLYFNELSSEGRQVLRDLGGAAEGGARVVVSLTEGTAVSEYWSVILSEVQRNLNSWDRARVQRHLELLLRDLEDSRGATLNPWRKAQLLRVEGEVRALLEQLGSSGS
# [3] = biological target: T1, MBP–NLRX1 (87–975 amino acids); assay: biotin-CoASH pull-down and competition with CoASH, immunoblot; format: binding; settings: labelled compound; unlabelled CoASH as competitor
# [4] = biological target: T1, MBP–NLRX1 (87–975 amino acids); assay: biotin-acyl-CoA pull-down, immunoblot; format: binding; settings: labelled compound (biotin conjugate)
# endogenous NLRX1 (HeLa cell lysate), sequence (Q86UT6 87-975): as above
smiles,measurement,setting,value
CC(=O)SCCNC(=O)CCNC(=O)[C@H](O)C(C)(C)COP(=O)(O)OP(=O)(O)OC[C@H]1O[C@@H](n2cnc3c(N)ncnc32)[C@H](O)[C@@H]1OP(=O)(O)O [AcCoA],thermal shift,[1],AcCoA addition substantially increased the stability of NLRX1 protein level compared with CoASH
same,"competition of AcCoA with biotin-AcCoA pull-down, immunoblot",[2],increasing concentrations of AcCoA competed with biotin–AcCoA for NLRX1 binding
CC(C)(COP(=O)(O)OP(=O)(O)OC[C@H]1O[C@@H](n2cnc3c(N)ncnc32)[C@H](O)[C@@H]1OP(=O)(O)O)[C@@H](O)C(=O)NCCC(=O)NCCS [CoASH],"biotin-CoASH pull-down and competition with CoASH, immunoblot",[3],CoASH was associated with recombinant NLRX1 to a lesser extent than AcCoA was
CC(C)(COP(=O)(O)OP(=O)(O)OC[C@H]1O[C@@H](n2cnc3c(N)ncnc32)[C@H](O)[C@@H]1OP(=O)(O)O)[C@@H](O)C(=O)NCCC(=O)NCCSC(=O)CC(=O)O [malonyl-CoA],"biotin-acyl-CoA pull-down, immunoblot",[4],no interaction between recombinant NLRX1 and malonyl-CoA or succinyl-CoA was detected
CC(C)(COP(=O)(O)OP(=O)(O)OC[C@H]1O[C@@H](n2cnc3c(N)ncnc32)[C@H](O)[C@@H]1OP(=O)(O)O)[C@@H](O)C(=O)NCCC(=O)NCCSC(=O)CCC(=O)O [succinyl-CoA],"biotin-acyl-CoA pull-down, immunoblot",[4],no interaction between recombinant NLRX1 and malonyl-CoA or succinyl-CoA was detected
